Test results published in ChEMBL document CHEMBL3596104, “Covalent modifier-type aggregation inhibitor of amyloid-β based on a cyclo-KLVFF motif” (Bioorg Med Chem Lett, 2015).
Each block holds one compound with its values, some of them ahead of it. Activity calls are given as the source filed them. No cut-off for these calls is given here. Starred links: 1 amine or outer side, 2 acyl side, 3 side chain; linkers in the order of their positions; H or OH if unused. Non-standard residues stand in square brackets, D forms with d. Residues, ends and D or L forms follow the SMILES beside them. Phe(4-CF3-diazirinyl) = N[C@@H](Cc1ccc(C2(C(F)(F)F)N=N2)cc1)C(=O)O; X1 = O=C([C@H](Cc1ccc(C(O)C(F)(F)F)cc1)N[*:1])[*:2]; Dip = N[C@H](C(=O)O)C(c1ccccc1)c1ccccc1

Key:
[1] = target: Amyloid-beta precursor protein (Homo sapiens) (UniProt P05067); experiment: Binding affinity to amyloid beta (1 to 42) (unknown origin) assessed as fluorescence intensity at 50 uM by Thioflavin-T fluorescence assay (reference value: 100%)
[2] = target: Amyloid-beta precursor protein (Homo sapiens) (UniProt P05067); experiment: Binding affinity to amyloid beta (1 to 42) (unknown origin) assessed as fluorescence intensity at 50 uM irradiated with UV light for 10 mins and measured after 60 mins by Thioflavin-T fluorescence assay (reference value: 100%)
[3] = target: Amyloid-beta precursor protein (Homo sapiens) (UniProt P05067); experiment: Inhibition of amyloid beta (1 to 42) (unknown origin)-mediated cytotoxicity in rat PC12 cells treated with 30 mins compound pre-treated Abeta (1 to 42) followed by UV irradiation for 10 mins […] and measured after 48 hrs by WST8 assay; format: cell-based; conditions: PC-12
[4] = target: Amyloid-beta precursor protein (Homo sapiens) (UniProt P05067); experiment: Binding affinity to amyloid beta (1 to 42) (unknown origin) assessed as intensity of peak for compound-amyloid beta (1 to 16) adduct at 200 uM incubated for 10 mins irradiated with UV light for 10 mins by MALDI-TOF-MS method
[5] = target: Amyloid-beta precursor protein (Homo sapiens) (UniProt P05067); experiment: Binding affinity to amyloid beta (1 to 42) (unknown origin) assessed as intensity of peak for compound-amyloid beta (1 to 16) adduct at 200 uM incubated for 20 mins irradiated with UV light for 10 mins by MALDI-TOF-MS method (reference value: 10%)
[6] = target: Amyloid-beta precursor protein (Homo sapiens) (UniProt P05067); experiment: Binding affinity to amyloid beta (1 to 42) (unknown origin) assessed as intensity of peak for compound-amyloid beta (1 to 16) adduct at 200 uM incubated for 60 mins irradiated with UV light for 10 mins by MALDI-TOF-MS method (reference value: 10%)
[7] = target: Amyloid-beta precursor protein (Homo sapiens) (UniProt P05067); experiment: Binding affinity to amyloid beta (1 to 42) (unknown origin) assessed as intensity of peak for compound-amyloid beta (1 to 16) adduct at 200 uM incubated for 120 mins irradiated with UV light for 10 mins by MALDI-TOF-MS method (reference value: 10%)
[8] = target: Amyloid-beta precursor protein (Homo sapiens) (UniProt P05067); experiment: Binding affinity to amyloid beta (1 to 42) (unknown origin) assessed as intensity of peak for compound-amyloid beta (17 to 28) adduct at 200 uM incubated for 20 to 120 mins irradiated with UV light for 10 mins by MALDI-TOF-MS method (reference value: 10%)
[9] = target: Amyloid-beta precursor protein (Homo sapiens) (UniProt P05067); experiment: Binding affinity to amyloid beta (1 to 42) (unknown origin) assessed as intensity of peak for compound-amyloid beta (29 to 42) adduct at 200 uM incubated for 20 to 120 mins irradiated with UV light for 10 mins by MALDI-TOF-MS method (reference value: 10%)
[10] = target: Amyloid-beta precursor protein (Homo sapiens) (UniProt P05067); experiment: Binding affinity to amyloid beta (1 to 16) (unknown origin) assessed as intensity of peak for compound-amyloid beta (1 to 16) adduct at 200 uM irradiated with UV light for 10 mins by MALDI-TOF-MS method
[11] = target: Amyloid-beta precursor protein (Homo sapiens) (UniProt P05067); experiment: Binding affinity to amyloid beta (1 to 42) (unknown origin) assessed as compound-amyloid beta (4 to 11) adduct formation at Tyr10 residue at 200 uM incubated for 2 hrs irradiated with UV light for 10 mins by LC-MS/MS method
[12] = target: T1, Angiotensinogen (Homo sapiens) (UniProt P01019); experiment: Binding affinity to angiotensin-4 (unknown origin) at 200 uM incubated for 2 hrs irradiated with UV light for 10 mins by MALDI-TOF-MS method
T1 sequence (whole entry): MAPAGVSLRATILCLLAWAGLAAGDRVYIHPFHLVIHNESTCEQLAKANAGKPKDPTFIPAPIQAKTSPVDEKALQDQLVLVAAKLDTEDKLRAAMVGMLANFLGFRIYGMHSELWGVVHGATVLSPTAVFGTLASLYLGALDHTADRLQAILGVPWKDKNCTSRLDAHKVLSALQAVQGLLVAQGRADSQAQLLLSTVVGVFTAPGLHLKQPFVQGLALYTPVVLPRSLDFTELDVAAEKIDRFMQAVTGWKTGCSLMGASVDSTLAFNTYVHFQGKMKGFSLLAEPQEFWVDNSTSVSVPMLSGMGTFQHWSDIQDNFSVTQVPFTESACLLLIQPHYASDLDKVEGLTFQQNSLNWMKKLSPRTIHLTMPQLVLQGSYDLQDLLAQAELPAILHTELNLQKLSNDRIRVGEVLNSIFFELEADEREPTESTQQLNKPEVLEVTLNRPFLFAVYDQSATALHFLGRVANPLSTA

[13] = target: T2, Neuropeptide S (Homo sapiens) (UniProt P0C0P6); experiment: Binding affinity to neuropeptide-S (unknown origin) at 200 uM incubated for 2 hrs irradiated with UV light for 10 mins by MALDI-TOF-MS method
T2 sequence (whole entry): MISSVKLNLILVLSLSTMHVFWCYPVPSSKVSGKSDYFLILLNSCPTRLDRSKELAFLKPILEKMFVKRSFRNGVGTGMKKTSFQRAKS

[14] = target: Insulin (Homo sapiens) (UniProt P01308); experiment: Binding affinity to human insulin at 200 uM incubated for 2 hrs irradiated with UV light for 10 mins by MALDI-TOF-MS method
[15] = target: Amyloid-beta precursor protein (Homo sapiens) (UniProt P05067); experiment: Binding affinity to amyloid beta (1 to 42) (unknown origin) assessed as fluorescence intensity at 50 uM irradiated with UV light for 10 mins and measured up to 4 hrs by Thioflavin-T fluorescence assay (reference value: 100%)
[16] = target: Amyloid-beta precursor protein (Homo sapiens) (UniProt P05067); experiment: Inhibition of fibril formation of amyloid beta (1 to 42) (unknown origin) at 50 uM incubated for 20 mins followed by irradiation with UV light for 10 mins and measured after 12 hrs by atomic force microscopy
[17] = target: Amyloid-beta precursor protein (Homo sapiens) (UniProt P05067); experiment: Inhibition of amyloid beta (1 to 42) (unknown origin)-mediated cytotoxicity in rat PC12 cells treated with 20 mins compound pre-treated Abeta (1 to 42) followed by UV irradiation for 10 mins […] and measured after 48 hrs by WST8 assay; format: cell-based; conditions: PC-12

Chain of Amyloid-beta precursor protein (Homo sapiens) (P05067 whole entry): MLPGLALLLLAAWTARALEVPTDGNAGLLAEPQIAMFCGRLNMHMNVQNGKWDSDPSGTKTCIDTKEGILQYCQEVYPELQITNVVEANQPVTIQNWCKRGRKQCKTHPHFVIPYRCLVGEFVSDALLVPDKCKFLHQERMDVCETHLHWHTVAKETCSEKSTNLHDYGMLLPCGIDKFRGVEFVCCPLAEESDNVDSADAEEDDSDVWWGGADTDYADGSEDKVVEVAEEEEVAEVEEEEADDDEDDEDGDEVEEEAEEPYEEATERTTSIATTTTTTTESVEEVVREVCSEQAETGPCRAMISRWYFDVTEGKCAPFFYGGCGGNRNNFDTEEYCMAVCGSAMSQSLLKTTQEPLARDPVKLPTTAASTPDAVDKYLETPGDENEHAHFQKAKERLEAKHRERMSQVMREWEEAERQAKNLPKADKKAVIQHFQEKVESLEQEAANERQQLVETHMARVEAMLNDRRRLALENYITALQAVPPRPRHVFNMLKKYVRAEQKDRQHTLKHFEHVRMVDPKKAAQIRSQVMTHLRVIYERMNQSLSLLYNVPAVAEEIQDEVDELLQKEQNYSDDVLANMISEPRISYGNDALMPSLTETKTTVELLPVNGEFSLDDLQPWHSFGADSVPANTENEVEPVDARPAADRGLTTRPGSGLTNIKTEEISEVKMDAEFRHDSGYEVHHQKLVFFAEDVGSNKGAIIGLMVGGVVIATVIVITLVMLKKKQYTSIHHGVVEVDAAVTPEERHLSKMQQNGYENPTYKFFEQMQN
Chain of Insulin (Homo sapiens) (P01308 whole entry): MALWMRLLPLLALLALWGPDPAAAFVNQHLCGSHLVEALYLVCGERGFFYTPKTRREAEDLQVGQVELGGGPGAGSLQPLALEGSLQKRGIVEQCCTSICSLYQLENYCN

SMILES: CC(C)C[C@H]1NC(=O)[C@@H](CCCCN)NC(=O)[C@@H](Cc2ccccc2)NC(=O)[C@@H](C(c2ccccc2)c2ccccc2)NC(=O)[C@@H](C(C)C)NC1=O
Activity [1]: 68%

SMILES: CC(C)C[C@@H]1NC(=O)[C@H](CCCCN)NC(=O)[C@H](Cc2ccc(C(O)C(F)(F)F)cc2)NC(=O)[C@H](C(c2ccccc2)c2ccccc2)NC(=O)[C@H](C(C)C)NC1=O (stereo not given in full) (cyclo([Dip][X1]KLV))
Activity [2]: 21% | inhibition [3]: Dose-dependent effect

SMILES: C[C@@H]1NC(=O)[C@H](CC(=O)O)NC(=O)[C@H](CCCNC(=N)N)NC(=O)[C@H](Cc2ccc(C3(C(F)(F)F)N=N3)cc2)NC(=O)[C@H](CCC(=O)O)NC1=O (cyclo(AE[Phe(4-CF3-diazirinyl)]RD))
Activity [4]: inactive

More lines, main results first:

Activity [4]: inactive
SMILES: CC(C)(C)OC(=O)N[C@@H](Cc1ccc(C2(C(F)(F)F)N=N2)cc1)C(=O)O

Activity [5]: 10% | Activity [6]: 20% | Activity [7]: 36% | Activity [8]: inactive | Activity [9]: inactive | Activity [4]: Active | Activity [10]: inactive | Activity [11]: Active | Activity [12]: inactive | Activity [13]: inactive | Activity [14]: inactive | Activity [1]: 59% | Activity [15]: 21% | inhibition [16]: Active
SMILES: CC(C)C[C@@H]1NC(=O)[C@H](CCCCN)NC(=O)[C@H](Cc2ccc(C3(C(F)(F)F)N=N3)cc2)NC(=O)[C@H](C(c2ccccc2)c2ccccc2)NC(=O)[C@H](C(C)C)NC1=O (cyclo([Dip][Phe(4-CF3-diazirinyl)]KLV))
inhibition [17]: Dose-dependent effect
